The NIST ThermoML archive (doi:10.1021/je5005559)
Numbers after ± are expanded uncertainties.

Legend:
[1] = for mass density: 298.15 K, 101.33 kPa
[2] = refractive index (Na D-line) (dimensionless); conditions: 298.15 K; 101.33 kPa; Liquid; Standard Abbe refractometry
[3] = Boiling temperature at pressure P; conditions: 101 kPa; Liquid; Distillation

mass density ([1]; Crystal, Pycnometric method) | Normal melting temperature ([1]; Crystal, visual observation) | Structure (SMILES) | refractive index [2] | mass density ([1]; Liquid, Vibrating tube method) | Boiling temperature at pressure P [3]
1346 ± 3 kg/m3 | 105.70 ± 1.1 °C | Oc1ccccc1O [1,2-benzenediol] | – | – | –
– | – | CC(=O)CC(C)C [4-methylpentan-2-one] | 1.3965 ± 0.0008 | 799 ± 2 kg/m3 | 116.60 ± 0.2 °C
